Laboratory results reported in PubChem BioAssay (NCI).
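Grown in 96-well plates, cells were treated for 48 hours with each compound at five concentrations. Insufficient inhibition: endpoint recorded as highest concentration tested. At the TGI there is no net growth.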

Key:
Experiment in all cases: DTP human tumour cell line panel, 48 h
M19-MEL melanoma = system: M19-MEL melanoma
OVCAR-3 ovarian = system: OVCAR-3 ovarian
COLO 205 colon = system: COLO 205 colon
EKVX NSCLC = system: EKVX NSCLC
DMS 273 small cell lung = system: DMS 273 small cell lung
U251 CNS = system: U251 CNS
RPMI-8226 leukemia = system: RPMI-8226 leukemia
NCI-H226 lung = system: NCI-H226 lung
SR leukemia = system: SR leukemia
ACHN renal = system: ACHN renal
SF-295 CNS = system: SF-295 CNS
SK-MEL-5 melanoma = system: SK-MEL-5 melanoma
LOX IMVI melanoma = system: LOX IMVI melanoma
DLD-1 colon = system: DLD-1 colon
UACC-62 melanoma = system: UACC-62 melanoma
M14 melanoma = system: M14 melanoma
786-0 renal = system: 786-0 renal
HCT-15 colon = system: HCT-15 colon
OVCAR-8 ovarian = system: OVCAR-8 ovarian
A498 renal = system: A498 renal
SK-MEL-28 melanoma = system: SK-MEL-28 melanoma
SK-OV-3 ovarian = system: SK-OV-3 ovarian
DMS 114 small cell lung = system: DMS 114 small cell lung
TK-10 renal = system: TK-10 renal
HCC-2998 colon = system: HCC-2998 colon
HL-60(TB) leukemia = system: HL-60(TB) leukemia
UO-31 renal = system: UO-31 renal
SF-268 CNS = system: SF-268 CNS
NCI-H460 lung = system: NCI-H460 lung
MOLT-4 leukemia = system: MOLT-4 leukemia
OVCAR-4 ovarian = system: OVCAR-4 ovarian
HT29 colon = system: HT29 colon
A549 NSCLC = system: A549 NSCLC
OVCAR-5 ovarian = system: OVCAR-5 ovarian
CCRF-CEM leukemia = system: CCRF-CEM leukemia
NCI-H23 lung = system: NCI-H23 lung
MALME-3M melanoma = system: MALME-3M melanoma
SNB-75 CNS = system: SNB-75 CNS
SF-539 CNS = system: SF-539 CNS
SNB-19 CNS = system: SNB-19 CNS
KM12 colon = system: KM12 colon
K-562 leukemia = system: K-562 leukemia
SW-620 colon = system: SW-620 colon
RXF 393 renal = system: RXF 393 renal
SNB-78 CNS = system: SNB-78 CNS
IGROV1 ovarian = system: IGROV1 ovarian
HOP-18 NSCLC = system: HOP-18 NSCLC
SN12C renal = system: SN12C renal
RXF-631 renal = system: RXF-631 renal
LXFL 529 NSCLC = system: LXFL 529 NSCLC
NCI-H522 lung = system: NCI-H522 lung
KM20L2 colon = system: KM20L2 colon
XF 498 CNS = system: XF 498 CNS
UACC-257 melanoma = system: UACC-257 melanoma
HOP-62 NSCLC = system: HOP-62 NSCLC
HOP-92 NSCLC = system: HOP-92 NSCLC
SK-MEL-2 melanoma = system: SK-MEL-2 melanoma
MCF7 breast = system: MCF7 breast
HS 578T breast = system: HS 578T breast
NCI/ADR-RES ovarian = system: NCI/ADR-RES ovarian
HCT-116 colon = system: HCT-116 colon
MDA-N = system: MDA-N
CAKI-1 renal = system: CAKI-1 renal
BT-549 breast = system: BT-549 breast
T-47D breast = system: T-47D breast
PC-3 prostate = system: PC-3 prostate
MDA-MB-435 = system: MDA-MB-435
DU-145 prostate = system: DU-145 prostate
MDA-MB-231 breast = system: MDA-MB-231 breast

CC1=C(C)C(=O)c2c(cc3ccc4ccccc4n23)C1=O
TGI (M19-MEL melanoma): > 100 µM
TGI (OVCAR-3 ovarian): > 100 µM
TGI (COLO 205 colon): > 100 µM
TGI (EKVX NSCLC): > 100 µM
TGI (DMS 273 small cell lung): > 100 µM
TGI (U251 CNS): > 100 µM
TGI (RPMI-8226 leukemia): > 100 µM
TGI (NCI-H226 lung): > 100 µM
TGI (SR leukemia): > 100 µM
TGI (ACHN renal): > 100 µM
TGI (SF-295 CNS): > 100 µM
TGI (SK-MEL-5 melanoma): > 100 µM
TGI (LOX IMVI melanoma): > 100 µM
TGI (DLD-1 colon): > 100 µM
TGI (UACC-62 melanoma): > 100 µM
TGI (M14 melanoma): > 100 µM
TGI (786-0 renal): > 100 µM
TGI (HCT-15 colon): > 100 µM
TGI (OVCAR-8 ovarian): > 100 µM
TGI (A498 renal): > 100 µM
TGI (SK-MEL-28 melanoma): > 100 µM
TGI (SK-OV-3 ovarian): > 100 µM
TGI (DMS 114 small cell lung): > 100 µM
TGI (TK-10 renal): > 100 µM
TGI (HCC-2998 colon): > 100 µM
TGI (HL-60(TB) leukemia): > 100 µM
TGI (UO-31 renal): > 100 µM
TGI (SF-268 CNS): > 100 µM
TGI (NCI-H460 lung): > 100 µM
TGI (MOLT-4 leukemia): > 100 µM
TGI (OVCAR-4 ovarian): > 100 µM
TGI (HT29 colon): > 100 µM
TGI (A549 NSCLC): > 100 µM
TGI (OVCAR-5 ovarian): > 100 µM
TGI (CCRF-CEM leukemia): > 100 µM
TGI (NCI-H23 lung): > 100 µM
TGI (MALME-3M melanoma): > 100 µM
TGI (SNB-75 CNS): > 100 µM
TGI (SF-539 CNS): > 100 µM
TGI (SNB-19 CNS): > 100 µM
TGI (KM12 colon): > 100 µM
TGI (K-562 leukemia): > 100 µM
TGI (SW-620 colon): > 100 µM
TGI (RXF 393 renal): > 100 µM
TGI (SNB-78 CNS): > 100 µM
TGI (IGROV1 ovarian): > 100 µM
TGI (HOP-18 NSCLC): > 100 µM
TGI (SN12C renal): > 100 µM
TGI (RXF-631 renal): > 100 µM
TGI (LXFL 529 NSCLC): > 100 µM

O=C(c1ccccc1)C(C(=O)c1ccccc1)C1(O)C(=O)c2ccccc2C1=O
TGI (NCI-H522 lung): 42.2 µM
TGI (M19-MEL melanoma): 42.6 µM
TGI (OVCAR-3 ovarian): > 100 µM
TGI (COLO 205 colon): > 100 µM
TGI (EKVX NSCLC): > 100 µM
TGI (DMS 273 small cell lung): > 100 µM
TGI (U251 CNS): > 100 µM
TGI (RPMI-8226 leukemia): > 100 µM
TGI (NCI-H226 lung): > 100 µM
TGI (SR leukemia): > 100 µM
TGI (ACHN renal): > 100 µM
TGI (KM20L2 colon): > 100 µM
TGI (SF-295 CNS): > 100 µM
TGI (LOX IMVI melanoma): > 100 µM
TGI (XF 498 CNS): > 100 µM
TGI (UACC-62 melanoma): > 100 µM
TGI (M14 melanoma): > 100 µM
TGI (786-0 renal): > 100 µM
TGI (HCT-15 colon): > 100 µM
TGI (OVCAR-8 ovarian): > 100 µM
TGI (A498 renal): > 100 µM
TGI (SK-MEL-28 melanoma): > 100 µM
TGI (SK-OV-3 ovarian): > 100 µM
TGI (TK-10 renal): 55.2 µM
TGI (HCC-2998 colon): > 100 µM
TGI (HL-60(TB) leukemia): 46.9 µM
TGI (UO-31 renal): > 100 µM
TGI (SF-268 CNS): > 100 µM
TGI (UACC-257 melanoma): > 100 µM
TGI (HOP-62 NSCLC): > 100 µM
TGI (MOLT-4 leukemia): > 100 µM
TGI (HT29 colon): > 100 µM
TGI (HOP-92 NSCLC): 64.6 µM
TGI (A549 NSCLC): > 100 µM
TGI (OVCAR-5 ovarian): > 100 µM
TGI (CCRF-CEM leukemia): 83 µM
TGI (NCI-H23 lung): 84.6 µM
TGI (MALME-3M melanoma): 96.6 µM
TGI (SNB-75 CNS): > 100 µM
TGI (SF-539 CNS): > 100 µM
TGI (SNB-19 CNS): > 100 µM
TGI (SK-MEL-2 melanoma): > 100 µM
TGI (KM12 colon): > 100 µM
TGI (K-562 leukemia): 60.6 µM
TGI (SW-620 colon): > 100 µM
TGI (RXF 393 renal): 0.889 µM
TGI (SNB-78 CNS): > 100 µM
TGI (IGROV1 ovarian): > 100 µM
TGI (HOP-18 NSCLC): > 100 µM
TGI (SN12C renal): > 100 µM
TGI (LXFL 529 NSCLC): > 100 µM

COc1cc2c(cc1C[N+](C)(C)CSc1ccccc1)-c1ccccc1CC2
TGI (NCI-H522 lung): 10.7 µM
TGI (OVCAR-3 ovarian): 13 µM
TGI (COLO 205 colon): 5.73 µM
TGI (EKVX NSCLC): 23.7 µM
TGI (U251 CNS): 27.8 µM
TGI (RPMI-8226 leukemia): 17.2 µM
TGI (NCI-H226 lung): 23.6 µM
TGI (SR leukemia): 7.55 µM
TGI (ACHN renal): 28.6 µM
TGI (SF-295 CNS): 25.5 µM
TGI (MCF7 breast): 16.4 µM
TGI (SK-MEL-5 melanoma): 2.39 µM
TGI (LOX IMVI melanoma): 14.6 µM
TGI (HS 578T breast): 19.3 µM
TGI (UACC-62 melanoma): 7.79 µM
TGI (M14 melanoma): 7.95 µM
TGI (786-0 renal): 19.6 µM
TGI (HCT-15 colon): 30.2 µM
TGI (OVCAR-8 ovarian): 14.6 µM
TGI (A498 renal): 37.9 µM
TGI (SK-MEL-28 melanoma): > 35.1 µM
TGI (SK-OV-3 ovarian): 26.1 µM
TGI (TK-10 renal): 23.1 µM
TGI (NCI/ADR-RES ovarian): > 100 µM
TGI (HCC-2998 colon): 13.6 µM
TGI (HCT-116 colon): 13.1 µM
TGI (HL-60(TB) leukemia): 2.46 µM
TGI (UO-31 renal): 28.6 µM
TGI (SF-268 CNS): 18.5 µM
TGI (NCI-H460 lung): 9.43 µM
TGI (UACC-257 melanoma): 12.3 µM
TGI (MDA-N): 5.48 µM
TGI (HOP-62 NSCLC): 27.1 µM
TGI (MOLT-4 leukemia): 9.59 µM
TGI (OVCAR-4 ovarian): 18.9 µM
TGI (HT29 colon): 13.1 µM
TGI (HOP-92 NSCLC): 26.2 µM
TGI (A549 NSCLC): 45.8 µM
TGI (OVCAR-5 ovarian): 24.3 µM
TGI (CCRF-CEM leukemia): 14.3 µM
TGI (NCI-H23 lung): 14.4 µM
TGI (CAKI-1 renal): 26.4 µM
TGI (MALME-3M melanoma): 6.23 µM
TGI (SNB-75 CNS): 6.17 µM
TGI (BT-549 breast): 15.5 µM
TGI (SF-539 CNS): 20.6 µM
TGI (SNB-19 CNS): 10.7 µM
TGI (SK-MEL-2 melanoma): 5.21 µM
TGI (KM12 colon): 6.92 µM
TGI (K-562 leukemia): 6.75 µM
TGI (SW-620 colon): > 41.3 µM
TGI (RXF 393 renal): 23.1 µM
TGI (T-47D breast): 16.2 µM
TGI (PC-3 prostate): 11 µM
TGI (IGROV1 ovarian): 12.5 µM
TGI (MDA-MB-435): 12.5 µM
TGI (SN12C renal): 19.2 µM
TGI (DU-145 prostate): 21.2 µM
TGI (MDA-MB-231 breast): 10 µM
